Experimental data published in patent US20160108381A1, “DNA POLYMERASES AND MUTANTS THEREOF” (LIFE TECHNOLOGIES CORPORATION, priority 2001, published 2016).

How the values were obtained:
[1] = target: T1, Caldicellulosiruptor sp. strain Tok13B.1 (Tok13B) DNA polymerase, SEQ ID NO:17 (Caldicellulosiruptor saccharolyticus, UniProt Q6X9R9); test: Steady-state kinetics, DNA- and RNA-dependent polymerase activity; type: biochemical; details: Table 40; dTTP; 72 °C
T1 sequence (Q6X9R9 with tags, fused parts or gaps): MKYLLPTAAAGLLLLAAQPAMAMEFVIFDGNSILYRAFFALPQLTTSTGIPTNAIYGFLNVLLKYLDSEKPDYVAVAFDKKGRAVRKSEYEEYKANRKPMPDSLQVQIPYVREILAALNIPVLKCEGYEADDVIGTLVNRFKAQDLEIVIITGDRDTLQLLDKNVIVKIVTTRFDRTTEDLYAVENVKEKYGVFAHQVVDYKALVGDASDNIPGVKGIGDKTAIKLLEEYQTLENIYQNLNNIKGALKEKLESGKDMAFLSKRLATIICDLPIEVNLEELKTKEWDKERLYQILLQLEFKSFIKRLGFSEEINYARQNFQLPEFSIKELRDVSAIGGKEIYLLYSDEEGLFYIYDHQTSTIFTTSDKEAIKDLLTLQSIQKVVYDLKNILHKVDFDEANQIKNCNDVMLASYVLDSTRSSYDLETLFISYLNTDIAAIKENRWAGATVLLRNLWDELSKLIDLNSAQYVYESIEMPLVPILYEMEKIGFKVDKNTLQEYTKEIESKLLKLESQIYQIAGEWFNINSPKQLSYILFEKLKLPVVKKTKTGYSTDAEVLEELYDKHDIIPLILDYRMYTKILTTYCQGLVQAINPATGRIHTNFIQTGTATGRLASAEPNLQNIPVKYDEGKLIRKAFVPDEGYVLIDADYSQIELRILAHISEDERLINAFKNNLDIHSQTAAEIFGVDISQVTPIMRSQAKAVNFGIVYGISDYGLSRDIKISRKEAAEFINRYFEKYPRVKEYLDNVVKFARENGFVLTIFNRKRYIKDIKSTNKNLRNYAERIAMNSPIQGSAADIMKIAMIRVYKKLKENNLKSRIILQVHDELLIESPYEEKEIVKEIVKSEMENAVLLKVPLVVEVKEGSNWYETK
Procedure: (§1) Subcloning of genes for Tok13B, Tok7B, and Rt69B. Subcloning of the genes for Tok13B, Tok7B, and Rt69B DNA polymerase was carried out to remove the pelB leader sequence derived from pET26B. This reduced proteolytic degradation of the DNA polymerases from these genes observed in E. coli when the pelB leader was present. Each DNA polymerase gene was removed from pET26B by restriction digestion of the plasmid DNA with NcoI, which cut at the 5′ end of the gene, and BamHI, which cut downstream of the translation stop codon at the 3′ end of the gene. The NcoI-BamHI fragment was ligated into the NcoI and BamHI sites of expression vector pET14B (Novagen Inc., Madison, Wis.). The recombinant plasmids were transformed into the E. coli expression host BL21-AI (Invitrogen Corporation, Carlsbad, Calif.).
(§2) Purification of CA2, B.EA1, Rt41A, Dth, Tok13B, Tok7B, and Rt69B DNA polymerase. E. coli cells (BL21SI, Invitrogen Corporation, Carlsbad, Calif.) bearing the plasmid pET26B with the gene for CA2, B.EA1, Rt41A, or Dth DNA polymerase were grown in 2.8-1 Fembach flasks in LB broth containing no salt and 50 μg/ml kanamycin at 37° C. After the culture reached an A590 of 1.2, expression of DNA polymerase was induced with 0.3 M NaCl for 3 hr. Cells were harvested by centrifugation and stored at −70° C. […]

[2] = target: T2, Caldicellulosiruptor sp. strain Rt69B.1 (RT69B) DNA polymerase, SEQ ID NO:19 (Caldicellulosiruptor saccharolyticus, UniProt Q6X9R7); test: as above; type: biochemical; details: Table 40; dTTP; 72 °C
T2 sequence (Q6X9R7 with tags, fused parts or gaps): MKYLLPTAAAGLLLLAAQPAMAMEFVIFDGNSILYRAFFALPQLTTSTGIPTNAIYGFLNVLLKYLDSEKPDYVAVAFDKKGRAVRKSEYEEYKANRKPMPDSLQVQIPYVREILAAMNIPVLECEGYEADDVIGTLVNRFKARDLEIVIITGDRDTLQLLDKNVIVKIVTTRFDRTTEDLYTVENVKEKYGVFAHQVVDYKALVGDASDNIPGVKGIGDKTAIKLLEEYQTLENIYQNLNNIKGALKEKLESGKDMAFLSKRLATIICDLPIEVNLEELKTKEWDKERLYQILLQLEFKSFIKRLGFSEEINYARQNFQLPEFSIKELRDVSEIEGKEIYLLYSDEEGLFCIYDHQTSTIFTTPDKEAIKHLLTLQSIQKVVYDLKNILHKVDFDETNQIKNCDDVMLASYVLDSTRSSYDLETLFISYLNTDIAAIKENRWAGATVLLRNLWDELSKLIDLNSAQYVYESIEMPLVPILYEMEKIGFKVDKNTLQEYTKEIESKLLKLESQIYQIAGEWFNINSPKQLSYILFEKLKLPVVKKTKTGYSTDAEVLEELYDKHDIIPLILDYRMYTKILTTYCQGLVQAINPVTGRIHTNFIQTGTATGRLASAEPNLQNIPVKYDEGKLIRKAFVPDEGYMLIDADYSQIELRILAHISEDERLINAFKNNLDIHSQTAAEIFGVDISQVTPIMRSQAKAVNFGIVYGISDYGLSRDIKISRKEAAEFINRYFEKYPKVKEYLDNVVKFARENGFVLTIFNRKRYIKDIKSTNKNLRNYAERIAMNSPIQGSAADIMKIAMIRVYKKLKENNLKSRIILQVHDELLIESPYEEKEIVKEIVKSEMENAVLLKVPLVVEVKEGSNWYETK
Procedure: as §1, §2

## Cc1cn([C@H]2C[C@H](O)[C@@H](COP(=O)(O)OP(=O)(O)OP(=O)(O)O)O2)c(=O)[nH]c1=O [dTTP]
[1]
  kCAT Ratio (RNA/DNA): 0.03
[2]
  kCAT Ratio (RNA/DNA): 0.03
